Laboratory results published in patent EP0207453B1 (priority 1985, dated 1987).
Values after ≈ are worked out from the molar mass of the structure shown.

What follows are molecules tested on Polio 2 (assay: microbe, parasite or virus in culture). Conditions: HeLa, read-out: MIC (Polio 2).
Format: cell-based, polioviruses

Structure (SMILES) | MIC [mg/L]
Cc1cc(CCCCCOc2c(Cl)cc(-c3nnn(C)n3)cc2Cl)on1 [23 (1st compd.), 5-{5-[2,6-dichloro-4-(2-methyl-2H-tetrazol-5-yl)phenoxy]pentyl}-3-methylisoxazole] | 2.9 (≈ 7.32 µM)
Cc1cc(CCCCCOc2ccc(-c3cccs3)cc2)on1 [Example 2, 3-Methyl-5-{5-(4-(2-thienyl)phenoxy]pentyl}-isoxazole] | 0.02 (≈ 0.0611 µM)
Cc1cc(CCCCCOc2ccc(-c3nc4ccccc4o3)cc2)on1 [Example 6, 5-{5-[4-(2-Benzoxazolyl)phenoxy]pentyl}-3-methylisoxazole] | 0.9 (≈ 2.48 µM)
Cc1cc(CCCCCOc2c(Cl)cc(-c3cccs3)cc2Cl)on1 [Example 1(c), 5-{5-[2,6-Dichloro-4-(2-thienyl)phenoxy]pentyl}-3-methylisoxazole] | 2.5 (≈ 6.31 µM)
Cc1cc(CCCCCOc2c(Cl)cc(-c3ccc(C)s3)cc2Cl)on1 [10(b), 5-{5-[2,6-Dichloro-4-(5-methyl-2-thienyl)phenoxy]pentyl}-3-methylisoxazole] | 4.4 (≈ 10.7 µM)
Cc1cc(CCCCCOc2ccc(-c3nc(C)c(C)s3)cc2)on1 [Example 3, 3-Methyl-5-{5-[4-(4,5-dimethyl-2-thiazolyl)phenoxy]-pentyl}isoxazole] | 1 (≈ 2.81 µM)
Cc1cc(CCCCCOc2ccc(-c3nccs3)cc2)on1 [Example 20, 3-Methyl-5-{5-[4-(2-thiazolyl)phenoxy]pentyl}-isoxazole] | 0.06 (≈ 0.183 µM)
